Experimental data taken from PubChem BioAssay (NCI).
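Test compounds were applied to cells in 96-well plates for 48 hours at 5 doses. Definition used: TGI = concentration required for complete inhibition of growth.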

Tests used:
Experiment in all cases: NCI tumour cell line growth inhibition, 48 h
KM20L2 colon = system: KM20L2 colon
LXFL 529 NSCLC = system: LXFL 529 NSCLC
M19-MEL melanoma = system: M19-MEL melanoma
RXF-631 renal = system: RXF-631 renal
XF 498 CNS = system: XF 498 CNS
DMS 273 small cell lung = system: DMS 273 small cell lung
HOP-18 NSCLC = system: HOP-18 NSCLC
P388 leukemia = system: P388 leukemia
P388/ADR leukemia = system: P388/ADR leukemia
SN12K1 renal = system: SN12K1 renal

| SMILES | TGI (KM20L2 colon) [µM] | TGI (LXFL 529 NSCLC) [µM] | TGI (M19-MEL melanoma) [µM] | TGI (RXF-631 renal) [µM] | TGI (XF 498 CNS) [µM] | TGI (DMS 273 small cell lung) [µM] | TGI (HOP-18 NSCLC) [µM] | TGI (P388 leukemia) [µM] | TGI (P388/ADR leukemia) [µM] | TGI (SN12K1 renal) [µM] |
| --- | --- | --- | --- | --- | --- | --- | --- | --- | --- | --- |
| C=CC1(C)CCC2=C(CCC3C(C)(C(=O)OC)CCCC23C)C1=O (stereo not given) | 40.3 | 36.4 | 36 | 31.6 | – | – | – | – | – | – |
| Clc1ccccc1/C=C/c1cscn1 | – | > 100 | > 100 | – | > 100 | – | – | – | – | – |
| C=C(C)C(=O)OC1CCC2(C)C(CCC3C2CCC2(C)C(c4ccc(=O)oc4)CC4OC432)C1 (stereo not given) | 40.4 | – | 10.7 | – | 21 | 20.5 | 104 | 15.5 | 31.7 | 17.6 |
